# Where a SMILES comes first, the peptide text is derived from it. The star is where a group is joined. Cbz = O=C(OCc1ccccc1)*
# Key:
# HIF1α = assay: Pilot ORF-luciferase stabilization experiment in 293FT cells (Fluc/Rluc); type: cell-based, human; details: DMOG 1 μM, 24 hours
# Method: (§1) FIGS. 6A-6B depict the pharmacological stabilization of firefly luciferase fusion protein. 293FT cells were transiently transfected with plasmids encoding unfused Fluc (pIRIF) or the indicated ORF-firefly luciferase (Fluc) fusions and then treated for 24 hours with DMOG (1 μM), MG132 (10 μM), or vehicle (DMSO). HIF1α-dPA is a HIF1α variant lacking both prolyl hydroxylation sites (33). Shown for each plasmid are Fluc/Rluc values (FIG. 6A) and Fold change in Fluc/Rluc compared to DMSO treatment (FIG. 6B). Data are mean±SD, n=4.
# (§2) In pilot experiments 293FT embryonic kidney cells grown in multiwell plates were transfected with the ORF-luciferase library (one ORF per well) and treated with the proteasome inhibitor MG132, the hydroxylase inhibitor dimethyloxalylglycine (DMOG), or vehicle. Fluc/Rluc values measured 36 to 48 hours later were stable over a wide range of input plasmid concentrations (FIG. 5).
# IKZF1 = assay: Exogenous IKZF protein level in 293FT cells (Fluc/Rluc ratio, HA immunoblot); type: cell-based, human; details: 12 hours; for effect on down-regulation of exogenous IKZF1 by lenalidomide: with lenalidomide 2 μM, MLN4924 1 μM or MG132 10 μM
# Method: To verify the change of Fluc/Rluc of ORFs obtained from the 384-well high-throughput screen, each clone was further tested in a 96 well format. […] On the day of transfection 96-well polypropylene plates (Greiner) were used to prepare the transfection mixture. First, a plasmid mixture containing 240 ng of ORF luciferase fusion clone and 480 ng of pcDNA3 was diluted into 120 μl of Opti-MEM reduced serum. Next 14.4 μL of Lipofectamine 2000 was diluted into 120 μl of Opti-MEM reduced serum. 5 minutes later, the plasmid solution was mixed with the diluted Lipofectamine 2000 using a multi-channel pipette. […] 24 hours after transfection, cells were treated with LEN (2 μM) or DMSO in quadruplicate. […] The ratio of FLuc/Rluc was calculated for each well. To determine the change of Fluc/Rluc for each ORF, the averaged Fluc/Rluc of LEN treated wells was divided by that of DMSO treated wells. A 2-tailed Student's t test was performed to determine the statistical significance. P value <0.05 was considered significant.
# (§3) Whole cell extracts were resolved by SDS-polyacrylamide gel electrophoresis, transferred onto a nitrocellulose membrane, and probed with the indicated primary antibodies. Bound antibodies were detected with horseradish peroxidase-conjugated secondary antibodies (Pierce) and enhanced chemiluminescence (ECL) western blotting detection regents (Pierce) or Immobilon western chemiluminescent horseradish peroxidase substrate (Millipore).
# endogenous IKZF3 = assay: Immunoblot of endogenous protein in myeloma cells; type: cell-based, human; details: MM1S and L363 cells; pretreated with MG132 or MLN4924
# From the text: as §3
# (§4) For cycloheximide assays, cells were pretreated with DMSO or LEN (2 μM) for 1 hour, and then 100 μg/ml cycloheximide (Sigma) was added into the DMEM growth medium.
# endogenous IKZF1 = assay: Immunoblot of endogenous protein in leukemia and myeloma cells; type: cell-based, human; details: U937, MM1S and L363 cells; pretreated with MG132 or MLN4924
# From the text: as §3, §4
# proteasomal substrates = assay: Pilot ORF-luciferase stabilization experiment in 293FT cells (Fluc/Rluc); type: cell-based, human; details: MG132 10 μM, 24 hours
# Method: as §1, §2
# IRF4 mRNA = assay: Real-time qPCR; type: cell-based, human; details: MM1S cells treated with lenalidomide
# Method: Total RNA was extracted using Qiagen RNeasy Mini Kit with on-column DNase digestion. Total RNA was reverse transcribed into first-strand cDNA using AffinityScript QPCR cDNA Synthesis Kit (Agilent) with random primers. Real-time PCR was performed in duplicate using RT2 SYBR Green/ROX qPCR Master Mix (Qiagen) and the Mx3000P QPCR system (Stratagene). Values were averaged to calculate the expression level and normalized against the level of RPS18. PCR primers are as follows: […]
# [1] = target: IKZF2 with the reciprocal change (H141Q) (Homo sapiens, UniProt Q9UKS7, H141Q); details: reciprocal change in IKZF2
# From the text: (§5) Human IKZF4 cDNA clone was PCR amplified from ETS clone HsCD00295530 (PlasmID, DF/HCC DNA Resource Core), and then cloned into pDONR223 via BP gateway recombination. Human CRBN, human IKZF1 splicing variant 2 (IKZF1-V2), human IKZF2 splicing variant 2 (IKZF2-V2), human IKZF5 and human IRF4 in pDONR223 entry vectors were obtained from the human ORFeome Collection (DF/HCC DNA Resource Core). IKZF1 splicing variant 1 (IKZF1-V1) cDNA and human IKZF2 splicing variant 1 (IKZF2-V1) cDNA were generated by overlapping PCR and cloned into pDONR223 via BP gateway recombination. IKZF4, IKZF1-V1 and IKZF2-V1 were cloned into pIRIGF via LR gateway recombination. IKZF1/2 chimeras (IKZF12 H1, IKZF12 H2, IKZF12 H3, IKZF12 H4, IKZF21 H5, IKZF21 H6, IKZF21 H7, IKZF2 H8, IKZF121 and IKZF212), IKZF1-V2-Q146H, IKZF1-V2-H176P/L177F, IKZF2-V1-H141Q, IKZF2-V1-P171H/F172L, IKZF1-V1-Q146H, IKZF3-Q147H mutants were generated via overlapping PCR and cloned into pIRIGF via LR gateway recombination. IKZF1-V2, IKZF2-V2, IKZF3, IKZF4, IKZF5 and IRF4 were cloned into plenti-UBC-gate-3xHA-pGK-PUR via LR gateway recombination.
# IKZF1 Q146H = IKZF1 Q146H (Homo sapiens, UniProt Q13422, Q146H); details: IKZF1 residue Q146 changed to histidine
# From the text: as §5
# C11orf65 = target: T1, C11orf65 (Homo sapiens, UniProt Q8NCR3); assay: Exogenous protein level in 293FT cells (Fluc/Rluc ratio, HA tag); type: cell-based; details: lenalidomide
# T1 construct: expressed in transfected cells; host or cells: 293FT
# T1 sequence (Q8NCR3 1-313): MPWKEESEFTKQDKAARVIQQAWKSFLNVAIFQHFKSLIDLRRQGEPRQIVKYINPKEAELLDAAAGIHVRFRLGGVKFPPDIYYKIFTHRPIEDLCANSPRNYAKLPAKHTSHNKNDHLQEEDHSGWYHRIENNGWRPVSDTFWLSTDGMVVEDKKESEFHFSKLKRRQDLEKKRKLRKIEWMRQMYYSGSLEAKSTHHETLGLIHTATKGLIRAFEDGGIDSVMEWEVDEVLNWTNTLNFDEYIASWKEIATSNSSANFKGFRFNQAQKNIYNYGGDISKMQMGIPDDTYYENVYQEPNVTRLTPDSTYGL
# IRF4 [2] = details: at least indirectly; cited from earlier work
# IRF4 [3] = target: T2, IRF4 (Homo sapiens, UniProt Q15306); assay: Exogenous protein level in 293FT cells (Fluc/Rluc ratio, HA immunoblot); type: cell-based; details: lenalidomide 2 μM, 12 hours
# T2 construct: expressed in transfected cells; host or cells: 293FT
# Method: (§6) To verify the change of Fluc/Rluc of ORFs obtained from the 384-well high-throughput screen, each clone was further tested in a 96 well format. The day before transfection, 293FT cells were seeded into solid opaque 96-well plates (BD biosciences) with 20,000 cells in 100 μl of DMEM culture media per well. On the day of transfection 96-well polypropylene plates (Greiner) were used to prepare the transfection mixture. First, a plasmid mixture containing 240 ng of ORF luciferase fusion clone and 480 ng of pcDNA3 was diluted into 120 μl of Opti-MEM reduced serum. Next 14.4 μL of Lipofectamine 2000 was diluted into 120 μl of Opti-MEM reduced serum. 5 minutes later, the plasmid solution was mixed with the diluted Lipofectamine 2000 using a multi-channel pipette. After 30 minutes, 28 μl of DNA/lipofectamine mixture was added to each well of the 96 well plates seeded with 293FT cells (8 wells for each ORF). […] The ratio of FLuc/Rluc was calculated for each well. […]
# as §3
# IKZF4 = target: T3, IKZF4 (Homo sapiens, UniProt Q9H2S9); assay: Exogenous IKZF protein level in 293FT cells (Fluc/Rluc ratio, HA immunoblot); type: cell-based; details: lenalidomide 2 μM, 12 hours
# T3 construct: expressed in transfected cells; host or cells: 293FT
# Method: as §6, §3
# IKZF5 = target: T4, IKZF5 (Homo sapiens, UniProt Q9H5V7); assay: as above; type: cell-based; details: lenalidomide 2 μM, 12 hours
# T4 construct: expressed in transfected cells; host or cells: 293FT
# Method: as §6, §3
# IRF4 [4] = assay: Immunoblot of endogenous protein in myeloma cells; type: cell-based, human; details: LEN 2 μM
# From the text: as §3
# cereblon = cereblon (Homo sapiens, UniProt Q96SW2); details: cited from earlier work
# [5] = in vivo; cited from earlier work
# zebrafish = details: in vivo; cited from earlier work
# [6] = target: cereblon autoubiquitination activity (Homo sapiens, UniProt Q96SW2); details: cited from earlier work
# myeloma = details: alone and in combination with lenalidomide; cited from earlier work
# IKZF3 = target: T5, IKZF3 (Homo sapiens, UniProt Q9UKT9); assay: Exogenous IKZF protein level in 293FT cells (Fluc/Rluc ratio, HA immunoblot); type: cell-based; details: pomalidomide 0.2 μM, 12 hours
# T5 construct: expressed in transfected cells; host or cells: 293FT
# Method: To verify the change of Fluc/Rluc of ORFs obtained from the 384-well high-throughput screen, each clone was further tested in a 96 well format. […] On the day of transfection 96-well polypropylene plates (Greiner) were used to prepare the transfection mixture. First, a plasmid mixture containing 240 ng of ORF luciferase fusion clone and 480 ng of pcDNA3 was diluted into 120 μl of Opti-MEM reduced serum. Next 14.4 μL of Lipofectamine 2000 was diluted into 120 μl of Opti-MEM reduced serum. 5 minutes later, the plasmid solution was mixed with the diluted Lipofectamine 2000 using a multi-channel pipette. […] The ratio of FLuc/Rluc was calculated for each well. To determine the change of Fluc/Rluc for each ORF, the averaged Fluc/Rluc of LEN treated wells was divided by that of DMSO treated wells. A 2-tailed Student's t test was performed to determine the statistical significance. P value <0.05 was considered significant.
# as §3
smiles,measurement,setting,value
"COC(=O)CNC(=O)C(=O)OC [DMOG, dimethyloxalylglycine]",stabilization of HIF1α-Fluc fusion (Fluc/Rluc),HIF1α,stabilized
CC(C)C[C@@H](C=O)NC(=O)[C@H](CC(C)C)NC(=O)[C@H](CC(C)C)NC(=O)OCc1ccccc1 [MG132] (Cbz-Leu-Leu-Leu-aldehyde),effect on down-regulation of exogenous IKZF1 by lenalidomide,IKZF1,blocked
same,effect of pretreatment on lenalidomide down-regulation of endogenous IKZF3,endogenous IKZF3,unless the cells were pretreated
same,effect of pretreatment on lenalidomide down-regulation of endogenous IKZF1,endogenous IKZF1,unless the cells were pretreated
same,stabilization of ORF-Fluc fusions (Fluc/Rluc),proteasomal substrates,stabilized many proteasomal substrates
Nc1cccc2c1CN(C1CCC(=O)NC1=O)C2=O (stereo not drawn) [lenalidomide],IRF4 mRNA,IRF4 mRNA,Decreased
same,sensitivity of IKZF2 mutant to lenalidomide,[1],partially sensitive
same,cereblon binding and lenalidomide-induced degradation,IKZF1 Q146H,abrogated
same,level of C11orf65 fused to HA epitope tag instead of Fluc,C11orf65,unaffected
same,"IRF4 level, previous studies",IRF4 [2],down-regulates
same,level of exogenous IRF4,IRF4 [3],did not affect
same,level of exogenous IKZF4,IKZF4,did not affect
same,level of exogenous IKZF5,IKZF5,did not affect
same,"IRF4 level (immunoblot, time course)","IRF4 [4]; KMS34 cells, following loss of IKZF1 and IKZF3",decrease
same,"IRF4 level (immunoblot, time course)","IRF4 [4]; L363 cells, high basal IRF4",unaffected
same,"IRF4 level (immunoblot, time course)","IRF4 [4]; MM1S cells, following loss of IKZF1 and IKZF3",decrease
same,IRF4 level,"IRF4 [4]; three resistant lines (KMS11, RPMI8226, OCImy5)",not down-regulated
O=C1CCC(N2C(=O)c3ccccc3C2=O)C(=O)N1 (stereo not drawn) [thalidomide],binding to cereblon,cereblon,bind
same,teratogenicity,[5],"teratogenicity, manifest as profound limb defects"
same,effect of treatment of zebrafish,zebrafish,caused fin defects
same,effect on cereblon autoubiquitination activity,[6],inhibit
CC(C)C[C@H](NC(=O)[C@H](Cc1ccccc1)NC(=O)c1cnccn1)B(O)O [bortezomib],antimyeloma activity,myeloma,has antimyeloma activity
NS(=O)(=O)OC[C@@H]1C[C@@H](n2ccc3c(N[C@H]4CCc5ccccc54)ncnc32)C[C@@H]1O [MLN4924],effect on down-regulation of exogenous IKZF1 by lenalidomide,IKZF1,blocked
same,effect of pretreatment on lenalidomide down-regulation of endogenous IKZF3,endogenous IKZF3,unless the cells were pretreated
same,effect of pretreatment on lenalidomide down-regulation of endogenous IKZF1,endogenous IKZF1,unless the cells were pretreated
Nc1cccc2c1C(=O)N(C1CCC(=O)NC1=O)C2=O (stereo not drawn) [pomalidomide],level of IKZF3 fused to Fluc or HA,IKZF3,downregulation
same,level of IKZF1 fused to Fluc or HA,IKZF1; pomalidomide 0.2 μM,downregulation

# From US20170292959A1, “PLASMIDS COMPRISING INTERNAL RIBOSOMAL ENTRY SITES AND USES THEREOF” (Dana-Farber Cancer Institute, Inc., priority 2014, published 2017)
